13 compounds from US20240294499A1, “TARGETED PROTEIN DEGRADATION USING BIFUNCTIONAL COMPOUNDS THAT BIND UBIQUITIN LIGASE AND TARGET MCL-1 PROTEIN” (Captor Therapeutics S.A., priority 2021, published 2024) can be followed below.

In one assay the test system is MV-4-11 cells. The assay can be described thus: Cell viability assay (CellTiter-Glo), MV-4-11. It counts as cell-based. The conditions noted are these: Homo sapiens, MV4-11, 24 hours incubation, 1% FBS, read-out: Average pIC50 by molecule MV-4-11 (converted). The text has this: (§1) The effect of various compounds of the invention on the viability of OPM-2, MV-4-11 and ARH-77 cell lines was investigated, using the CTG protocol described below.
(§2) OPM-2 and MV-4-11 cell lines are derived from multiple myeloma and acute myeloid leukaemia, respectively. Both cell lines are described in the literature as MCL-1 dependent lines, as opposed to lymphoblast-like ARH-77 cell line, which is described as independent of MCL-1 (Tron A E et al. Nat Commun. 2018; 9: 5341; Caenepeel S et al. Cancer Discov. 2018 December; 8(12):1582-1597).
(§3) Cells (OPM-2, MV-4-11 or ARH-77) were seeded on […] in a growth medium with FBS reduced to 1%. Next, compound stocks were pre-diluted in DMSO and added directly to the cells growth medium (final DMSO concentration: 0.5%). Compound concentrations used in this assay: 1/3 dilutions starting at 30 uM (9 to 12 points).
(§4) After 24 hours of incubation, cell viability was evaluated using CellTiter-Glo Luminescent Cell Viability Assay (Promega, cat #G7572). Luminescence signal was measured using a CLARIOstar Plus Multi-Mode Microplate Reader (574-590 nm).
(§5) Results were normalized to DMSO control.
(In general: Cellular ATP, detected with luciferase, serves as a proxy for viable cell number.)

A further assay has as its system ARH-77 cells. The assay can be described thus: Cell viability assay (CellTiter-Glo), ARH-77. It counts as cell-based. The note with it: Homo sapiens, ARH-77, 24 hours incubation, 1% FBS, read-out: Average pIC50 by molecule ARH-77 (converted).
Excerpt: as §1, §2, §3, §4, §5

Assay [1] concerns the target [MCL-1]-[compound of formula (I)]-[CRBN/DDB1] complex (Homo sapiens, UniProt Q07820+Q96SW2). The assay can be described thus: AlphaLISA dose response ternary complex formation assay. Type of assay: binding. The note with it: read-out: AlphaLISA dose response Average pEC50 by molecule (converted). The procedure:
The effect of the bifunctional compounds of the invention on the formation of a ternary complex composed of [MCL-1]-[compound of formula (I)]-[CRBN/DDB1] was investigated with two methods: AlphaLISA dose response assay or HTRF ternary complex assay.
Two types of protein solution were prepared: • 40 nM biotinylated hMCL-1, 40 μg/ml AlphaScreen Streptavidin-coated Donor Beads in PBS buffer with 0.1% Tween-20 and 1 mM DTT, • 200 nM 6×His-CRBN/Strep-DDB1, 40 μg/ml AlphaLISA Anti-6×His Acceptor beads in PBS buffer with 0.1% Tween-20 and 1 mM DTT.
The prepared solutions were incubated at room temperature for 45 min and then the solution containing the donor beads was mixed with the solution containing the acceptor beads.
The tested compounds were dispensed onto a white 384-well AlphaPlate 384 SW. DMSO was backfilled to all wells, resulting in a final DMSO content of 2%. Wells containing only DMSO served as background. Next, 10 μl of solution with donor and acceptor beads was added to the wells.
The plate was sealed with transparent film and shaken using a VibroTurbulator for 60 see at room temperature, level 3. The plate was then spun down shortly (10 s, 1000 rcf, room temperature) and incubated at 25° C. for 30 min.
The read-out was performed with PerkinElmer Enspire Multimode Plate Reader (method for AlphaLISA 384-well low volume, Filterset: λexc=680 nm, λem=615 nm).
The results were analyzed as follows: • 1) an average of luminescence for background signal was calculated and used as a negative control; • 2) average of the maximum measured luminescence for 233 was calculated and used as an internal positive control; • 3) raw luminescence values were normalized against positive and negative controls; • 4) concentration points above the hook point were excluded; • 5) EC50 and pEC50 values were determined.
In general terms: Alpha assays give light when donor and acceptor beads are brought close together.

Chain of [MCL-1]-[compound of formula (I)]-[CRBN/DDB1] complex (Q07820 whole entry): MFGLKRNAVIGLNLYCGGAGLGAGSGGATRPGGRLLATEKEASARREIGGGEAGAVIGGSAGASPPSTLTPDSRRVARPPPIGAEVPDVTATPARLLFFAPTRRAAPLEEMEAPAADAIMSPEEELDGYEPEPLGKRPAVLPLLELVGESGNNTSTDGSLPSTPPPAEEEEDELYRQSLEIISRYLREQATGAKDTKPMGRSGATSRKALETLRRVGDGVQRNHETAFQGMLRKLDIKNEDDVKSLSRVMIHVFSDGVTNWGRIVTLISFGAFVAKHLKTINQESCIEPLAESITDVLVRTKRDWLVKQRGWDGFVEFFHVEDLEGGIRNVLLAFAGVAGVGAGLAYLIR
Chain of [MCL-1]-[compound of formula (I)]-[CRBN/DDB1] complex (Q96SW2 whole entry): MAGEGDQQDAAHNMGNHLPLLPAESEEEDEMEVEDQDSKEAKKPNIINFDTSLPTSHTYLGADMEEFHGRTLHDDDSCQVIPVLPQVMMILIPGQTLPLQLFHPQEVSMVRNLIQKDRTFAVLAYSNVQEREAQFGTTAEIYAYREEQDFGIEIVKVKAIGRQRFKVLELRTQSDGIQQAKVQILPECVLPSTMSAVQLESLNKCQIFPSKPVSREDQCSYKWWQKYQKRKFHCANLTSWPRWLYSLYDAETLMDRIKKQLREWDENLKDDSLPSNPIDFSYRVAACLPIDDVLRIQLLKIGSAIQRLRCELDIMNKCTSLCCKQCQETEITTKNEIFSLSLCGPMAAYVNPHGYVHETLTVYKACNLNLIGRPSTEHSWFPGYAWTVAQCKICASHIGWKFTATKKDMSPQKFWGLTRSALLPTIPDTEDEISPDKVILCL
Chain of [MCL-1]-[compound of formula (I)]-[CRBN/DDB1] complex (Q16531 whole entry partner): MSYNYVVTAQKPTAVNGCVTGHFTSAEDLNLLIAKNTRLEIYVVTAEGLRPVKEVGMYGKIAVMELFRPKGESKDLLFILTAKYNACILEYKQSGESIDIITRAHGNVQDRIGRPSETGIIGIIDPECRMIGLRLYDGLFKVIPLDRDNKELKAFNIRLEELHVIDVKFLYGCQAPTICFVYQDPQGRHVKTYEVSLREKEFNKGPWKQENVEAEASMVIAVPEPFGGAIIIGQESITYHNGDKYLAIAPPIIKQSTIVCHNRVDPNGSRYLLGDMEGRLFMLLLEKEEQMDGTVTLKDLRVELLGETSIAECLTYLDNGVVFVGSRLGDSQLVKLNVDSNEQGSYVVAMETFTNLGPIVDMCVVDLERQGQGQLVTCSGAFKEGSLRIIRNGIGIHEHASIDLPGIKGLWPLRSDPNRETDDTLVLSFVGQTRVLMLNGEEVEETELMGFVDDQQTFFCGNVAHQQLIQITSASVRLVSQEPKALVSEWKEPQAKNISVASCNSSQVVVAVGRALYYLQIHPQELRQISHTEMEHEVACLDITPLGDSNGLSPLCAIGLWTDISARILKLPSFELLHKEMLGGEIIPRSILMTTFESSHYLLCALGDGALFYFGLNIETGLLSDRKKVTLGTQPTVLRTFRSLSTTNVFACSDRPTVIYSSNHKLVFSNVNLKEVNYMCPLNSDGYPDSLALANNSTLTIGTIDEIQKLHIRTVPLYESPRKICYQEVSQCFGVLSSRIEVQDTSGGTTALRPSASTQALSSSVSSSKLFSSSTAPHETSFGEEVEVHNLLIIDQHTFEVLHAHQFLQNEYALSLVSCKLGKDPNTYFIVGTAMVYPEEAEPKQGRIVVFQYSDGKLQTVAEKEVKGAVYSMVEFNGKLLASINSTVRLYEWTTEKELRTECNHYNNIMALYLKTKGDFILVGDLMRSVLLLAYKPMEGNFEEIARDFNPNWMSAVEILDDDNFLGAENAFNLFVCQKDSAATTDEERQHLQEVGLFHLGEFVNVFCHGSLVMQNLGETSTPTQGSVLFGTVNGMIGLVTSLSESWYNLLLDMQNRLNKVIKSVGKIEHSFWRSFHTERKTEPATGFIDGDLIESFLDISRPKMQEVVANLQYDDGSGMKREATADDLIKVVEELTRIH

For the compound `Cc1nn(C)c(C)c1-c1c(Cl)ccc2c(CCCOc3cccc4cc(F)ccc34)c(C(=O)O)n(CCN3CCN(C(=O)[C@H](C)Oc4cccc5c4C(=O)N(C4CCC(=O)NC4=O)C5=O)CC3)c12` (mixture of isomers) [Compound 318, 6-Chloro-1-(2-(4-((2S)-2-((2-(2,6-dioxopiperidin-3-yl)-1,3-dioxoisoindolin-4-yl)oxy)propanoyl)piperazin-1-yl)ethyl)-3-(3-((6-fluoronaphthalen-1-yl)oxy)propyl)-7-(1,3,5-trimethyl-1H-pyrazol-4-yl)-1H-indole-2-carboxylic acid], the IC50 with MV-4-11 cells is ≤ 31.6 nM; in the assay on ARH-77 cells, > 10000 nM. For the same compound, in assay [1], the EC50 was < 100 nM.

Take `Cc1nn(C)c(C)c1-c1c(Cl)ccc2c(CCCOc3cccc4cc(F)ccc34)c(C(=O)O)n(CCN3CCN(C(=O)COc4cccc5c4CN([C@H]4CCC(=O)NC4=O)C5=O)CC3)c12` (single isomer, unassigned) [Compound 296]: the IC50 in the assay with MV-4-11 cells is ≤ 31.6 nM; with ARH-77 cells, > 10000 nM. The EC50 in assay [1] was < 100 nM.

As for `Cc1nn(C)c(C)c1-c1c(Cl)ccc2c(CCCOc3cccc4cc(F)ccc34)c(C(=O)O)n(CCN3CCN(C(=O)[C@@H](C)Oc4cccc5c4C(=O)N([C@@H]4CCC(=O)NC4=O)C5=O)CC3)c12` (single isomer, unassigned) [Compound 316], the results for the IC50 in the assay on MV-4-11 cells and in the assay on ARH-77 cells were ≤ 100 nM and > 3160 nM, respectively. Besides, the EC50 in assay [1] is < 1000 nM.

For `Cc1nn(C)c(C)c1-c1c(Cl)ccc2c(CCCOc3cccc4cc(F)ccc34)c(C(=O)O)n(CCN3CCN(C(=O)[C@@H](C)Oc4cccc5c4C(=O)N([C@H]4CCC(=O)NC4=O)C5=O)CC3)c12` (single isomer, unassigned) [Compound 317], the IC50 in the assay with MV-4-11 cells is ≤ 31.6 nM; with ARH-77 cells, > 3160 nM. Also, the EC50 in assay [1] was < 100 nM.

As to `Cc1nn(C)c(C)c1-c1c(Cl)ccc2c(CCCOc3cccc4cc(F)ccc34)c(C(=O)O)n(CCN3CCN(C(=O)[C@H](C)Oc4cccc5c4C(=O)N([C@@H]4CCC(=O)NC4=O)C5=O)CC3)c12` (single isomer, unassigned) [Compound 320], the results for the IC50 with MV-4-11 cells and in the assay with ARH-77 cells were ≤ 100 nM and > 10000 nM, respectively.

As to `Cc1cc(OCCCc2c(C(=O)O)n(CCN3CCN(C(=O)CCOCCOCCOCCOCCOCCOCCNc4cccc5c4C(=O)N(C4CCC(=O)NC4=O)C5=O)CC3)c3c(-c4c(C)nn(C)c4C)c(Cl)ccc23)cc(C)c1Cl` (stereo not shown) [Compound 203, 6-chloro-3-[3-(4-chloro-3,5-dimethylphenoxy)propyl]-1-{2-(4-(1-{(2-(2,6-dioxopiperidin-3-yl)-1,3-dioxo-2,3-dihydro-1H-isoindol-4-yl]amino}-3,6,9,12,15,18-hexaoxahenicosanoyl)piperazin-1-yl]ethyl}-7-(1,3,5-trimethyl-1H-pyrazol-4-yl)-1H-indole-2-carboxylic acid], the IC50 in the assay with MV-4-11 cells is ≤ 1000 nM. Besides, the EC50 in assay [1] is < 100 nM.

Regarding `COc1cc(OCCCc2c(C(=O)O)n(CCN3CCN(C(=O)COc4cccc5c4C(=O)N(C4CCC(=O)NC4=O)C5=O)CC3)c3c(-c4c(C)nn(C)c4C)c(Cl)ccc23)c2ccccc2c1` (stereo not shown) [Compound 218, 6-chloro-1-(2-(4-(2-((2-(2,6-dioxopiperidin-3-yl)-1,3-dioxoisoindolin-4-yl)oxy)acetyl)piperazin-1-yl)ethyl)-3-(3-((3-methoxynaphthalen-1-yl)oxy)propyl)-7-(1,3,5-trimethyl-1H-pyrazol-4-yl)-1H-indole-2-carboxylic acid], the IC50 in the assay with MV-4-11 cells was ≤ 1000 nM; with ARH-77 cells, > 10000 nM. The EC50 in assay [1] was < 100 nM.

In the case of `Cc1nn(C)c(C)c1-c1c(Cl)ccc2c(CCCOc3cccc4ccccc34)c(C(=O)O)n(CCN3CCN(C(=O)COc4cccc5c4CN(C4CCC(=O)NC4=O)C5=O)C4CC43)c12` (stereo not shown) [Compound 222, 6-chloro-1-{2-[5-(2-{[2-(2,6-dioxopiperidin-3-yl)-1-oxo-2,3-dihydro-1H-isoindol-4-yl]oxy}acetyl)-2,5-diazabicyclo[4.1.0]heptan-2-yl]ethyl}-3-[3-(naphthalen-1-yloxy)propyl]-7-(1,3,5-trimethyl-1H-pyrazol-4-yl)-1H-indole-2-carboxylic acid], the IC50 in the assay with MV-4-11 cells was ≤ 316 nM; in the assay with ARH-77 cells it was > 10000 nM. Also, the EC50 in assay [1] is < 100 nM.

For the compound `Cc1nn(C)c(C)c1-c1c(Cl)ccc2c(CCCOc3cccc4ccccc34)c(C(=O)O)n(CCC3CCN(C(=O)COc4cccc5c4CN(C4CCC(=O)NC4=O)C5=O)CC3)c12` (stereo not shown) [Compound 223, 6-chloro-1-{2-[1-(2-{[2-(2,6-dioxopiperidin-3-yl)-1-oxo-2,3-dihydro-1H-isoindol-4-yl]oxy}acetyl)piperidin-4-yl]ethyl}-3-[3-(naphthalen-1-yloxy)propyl]-7-(1,3,5-trimethyl-1H-pyrazol-4-yl)-1H-indole-2-carboxylic acid], the IC50 in the assay with MV-4-11 cells is ≤ 316 nM; in the assay with ARH-77 cells it was > 10000 nM. In addition, the EC50 in assay [1] is < 100 nM.

For `Cc1nc2cccc(NCC(=O)N3CCN(CCn4c(C(=O)O)c(CCCOc5cccc6cc(F)ccc56)c5ccc(Cl)c(-c6c(C)nn(C)c6C)c54)CC3)c2cc1C1CCC(=O)NC1=O` (stereo not shown) [Compound 287, 6-Chloro-1-{2-[4-(2-{[3-(2,6-dioxopiperidin-3-yl)-2-methylquinolin-5-yl]amino}acetyl)piperazin-1-yl]ethyl}-3-{3-[(6-fluoronaphthalen-1-yl)oxy]propyl}-7-(1,3,5-trimethyl-1H-pyrazol-4-yl)-1H-indole-2-carboxylic acid], the IC50 is ≤ 1000 nM in the assay with MV-4-11 cells and > 3160 nM in the assay with ARH-77 cells.

With `Cc1nn(C)c(C)c1-c1c(Cl)ccc2c(CCCOc3cccc4cc(F)ccc34)c(C(=O)O)n(CCN3CCN(C(=O)COc4cccc5c4CN([C@@H]4CCC(=O)NC4=O)C5=O)CC3)c12` [Compound 297, (R)-6-Chloro-1-(2-(4-(2-((2-(2,6-dioxopiperidin-3-yl)-1-oxoisoindolin-4-yl)oxy)acetyl)piperazin-1-yl)ethyl)-3-(3-((6-fluoronaphthalen-1-yl)oxy)propyl)-7-(1,3,5-trimethyl-1H-pyrazol-4-yl)-1H-indole-2-carboxylic acid], the IC50 with MV-4-11 cells is ≤ 100 nM; in the assay with ARH-77 cells, > 10000 nM.

Take `Cc1nn(C)c(C)c1-c1c(Cl)ccc2c(CCCOc3cccc4c3C3CCC4C3)c(C(=O)O)n(CCN3CCN(C(=O)COc4cccc5c4CN(C4CCC(=O)NC4=O)C5=O)CC3)c12` (stereo not shown) [Compound 352, 6-Chloro-1-(2-(4-(2-((2-(2,6-dioxopiperidin-3-yl)-1-oxoisoindolin-4-yl)oxy)acetyl)piperazin-1-yl)ethyl)-3-(3-((1,2,3,4-tetrahydro-1,4-methanonaphthalen-5-yl)oxy)propyl)-7-(1,3,5-trimethyl-1H-pyrazol-4-yl)-1H-indole-2-carboxylic acid]: in assay [1], the EC50 is < 1000 nM.

In the case of `Cc1nn(C)c(C)c1-c1c(Cl)ccc2c(CCCN(C)c3cccc4ccccc34)c(C(=O)O)n(CCN3CCN(C(=O)COc4cccc5c4CN(C4CCC(=O)NC4=O)C5=O)CC3)c12` (stereo not shown) [Compound 353, 6-Chloro-1-(2-(4-(2-((2-(2,6-dioxopiperidin-3-yl)-1-oxoisoindolin-4-yl)oxy)acetyl)piperazin-1-yl)ethyl)-3-(3-(methyl(naphthalen-1-yl)amino)propyl)-7-(1,3,5-trimethyl-1H-pyrazol-4-yl)-1H-indole-2-carboxylic acid], the EC50 in assay [1] is < 1000 nM.
